Drawing on patent US9994587B2, “HIV protease inhibitors” (priority 2014, dated 2018), this text covers IC50 for 18 molecules.

The target of this test is T1, wildtype HIV-1 protease (Human immunodeficiency virus type 1 group M subtype B, UniProt P04585).
T1 construct: preincubated with the HIV-1 protease (wild type) enzyme in assay buffer; made in house; host or cells: Escherichia coli
The test can be described thus: Assay for inhibition of microbial expressed HIV protease (Pepcleav). Type of test: biochemical. To be noted: wild type HIV-1 protease 20 pM, peptide substrate 400 micromolar, pH 5.5; mean of at least two independent experiments. How it is done: Assay for Inhibition of Microbial Expressed HIV Protease (“Pepcleav”)
Studies of the inhibition of the wildtype HIV-1 protease (which was expressed in Escherichia coli) were carried out with a peptide substrate [Val-Ser-Gln-Asn-(βnaphtyl)Ala-Pro-Ile-Val (SEQ ID NO 1)]. The inhibitor was first preincubated with the HIV-1 protease (wild type) enzyme in assay buffer (50 mM sodium acetate, pH 5.5, 100 mM NaCl, and 0.1% BSA) for 30 minutes at room temperature. Substrate was added to 400 micromolar in a total volume of 20 microliters containing 20 picomolar HIV-1 protease (final) and the reaction is incubated for 1 hour at 30° C. The reaction was quenched with the addition of formic acid and indinavir to 0.012% and 150 nM final concentrations, respectively. Product formation was determined after separation of product and substrate on a Zorbax Eclipse XDB-C18 column connected to an API 4000 mass spectrometer (Applied Biosystems) with multiple reaction monitoring (transitions were 644.5/428.9 and 615.4/422.2 (M1/M3) for product and indinavir respectively). The extent of inhibition of the reaction was determined from the peak area of the products.
As usually defined, the IC50 is the concentration at which inhibition is half-maximal. Molecule `COC(=O)N[C@H](C(=O)Nc1ccccc1CC[C@@H]1CNC[C@@H](CSc2ccc(S(C)(=O)=O)cc2)O1)C(c1ccccc1)c1ccccc1` [Example 21, methyl N-[(1S)-1-benzhydryl-2-[[2-[2-[(2R,6S)-6-[(4-methylsulfonylphenyl)sulfanyl-methyl]morpholin-2-yl]ethyl]phenyl]amino]-2-oxo-ethyl]carbamate] returned an IC50 of 0.86 nM. The figure for `COC(=O)N[C@H](C(=O)Nc1ccccc1CC[C@@H]1CNC[C@@H](CSc2ccc(Br)cc2F)O1)C(c1ccccc1)c1ccccc1` [Example 27, methyl N-[(1S)-1-benzhydryl-2-[[2-[2-[(2R,6S)-6-[(4-bromo-2-fluoro-phenyl)sulfanylmethyl]morpholin-2-yl]ethyl]phenyl]amino]-2-oxo-ethyl]carbamate] is 0.53 nM; for `COC(=O)N[C@H](C(=O)Nc1ccccc1CC[C@@H]1CNC[C@@H](COc2cccc3c2CCC3)O1)C(c1ccccc1)c1ccccc1` [Example 31, methyl N-[(1S)-1-benzhydryl-2-[[2-[2-[(2R,6S)-6-(indan-4-yloxymethyl)morpholin-2-yl]ethyl]phenyl]amino]-2-oxo-ethyl]carbamate] it is 36 nM. As to `COC(=O)N[C@H](C(=O)Nc1ccccc1CC[C@@H]1CNC[C@@H](CSc2cccc(S(C)(=O)=O)c2)O1)C(c1ccccc1)c1ccccc1` [Example 23, methyl N-[(1S)-1-benzhydryl-2-[[2-[2-[(2R,6S)-6-[(3-methylsulfonylphenyl)sulfanyl-methyl]morpholin-2-yl]ethyl]phenyl]amino]-2-oxo-ethyl]carbamate], the IC50 stood at 0.8 nM. As for `COC(=O)N[C@H](C(=O)Nc1ccccc1CC[C@@H]1CNC[C@@H](COc2ccc(S(C)(=O)=O)cc2)O1)C(c1ccccc1)c1ccccc1` [Example 16, methyl N-[(1S)-1-benzhydryl-2-[[2-[2-[(2R,6S)-6-[(4-methylsulfonylphenoxy)methyl]morpholin-2-yl]ethyl]phenyl]amino]-2-oxo-ethyl]carbamate], it took 19 nM to reach half-maximal inhibition (IC50).

As to `COC(=O)N[C@H](C(=O)Nc1ccccc1CC[C@@H]1CNC[C@@H](CSc2ccc(C#N)cc2)O1)C(c1ccccc1)c1ccccc1` [Example 22, methyl N-[(1S)-1-benzhydryl-2-[[2-[2-[(2R,6S)-6-[(4-cyanophenyl)sulfanylmethyl]morpholin-2-yl]ethyl]phenyl]amino]-2-oxo-ethyl]carbamate], it took 1.1 nM to reach half-maximal inhibition (IC50). The molecule `N[C@H](C(=O)Nc1cncc(F)c1CC[C@@H]1CNCC2(CCCC2)O1)C(c1ccccc1)c1ccccc1` [Example 131, N-(5-fluoro-4-{2-[(7R)-6-oxa-9-azaspiro[4.5]dec-7-yl]ethyl}pyridin-3-yl)-β-phenyl-L-phenylalaninamide] showed an IC50 of 300 nM. Next, `COC(=O)N[C@H](C(=O)Nc1ccccc1CC[C@@H]1CNC[C@@H](COc2ccc(-n3cncn3)cc2)O1)C(c1ccccc1)c1ccccc1` [Example 15, methyl N-[(1S)-1-benzhydryl-2-oxo-2-[[2-[2-[(2R,6S)-6-[[4-(1,2,4-triazol-1-yl)phenoxy]methyl]morpholin-2-yl]ethyl]phenyl]amino]ethyl] carbamate]: 12 nM.

For the molecule `COC(=O)N[C@H](C(=O)Nc1nccnc1CC[C@@H]1CNC[C@@H](COc2ccc(C#N)cc2)O1)C(c1ccccc1)c1ccccc1` [Example 84, methyl N-[(1S)-1-benzhydryl-2-[[3-[2-[(2R,6S)-6-[(4-cyanophenoxy)methyl]morpholin-2-yl]ethyl]pyrazin-2-yl]amino]-2-oxo-ethyl]carbamate], the IC50 turned out to be 430 nM.

Molecule `COC(=O)N[C@H](C(=O)Nc1ccccc1CC[C@@H]1CNC[C@@H](CS(=O)(=O)c2ccc(Cl)cc2)O1)C(c1ccccc1)c1ccccc1` [Example 56, methyl N-[(1S)-1-benzhydryl-2-[[2-[2-[(2R,6S)-6-[(4-chlorophenyl)sulfonylmethyl]morpholin-2-yl]ethyl]phenyl]amino]-2-oxo-ethyl]carbamate] registered an IC50 of 110 nM. Next, `COC(=O)N[C@H](C(=O)NCCCC1CNC[C@@H](CSc2ccc(Cl)cc2)O1)C(c1ccccc1)c1ccccc1` (stereo partly drawn) [Example 2, methyl N-[(1S)-1-benzhydryl-2-[3-[(6S)-6-[(4-chlorophenyl)sulfanylmethyl]morpholin-2-yl]propylamino]-2-oxo-ethyl]carbamate]: 300 nM; `COC(=O)N[C@H](C(=O)Nc1ccccc1CC[C@@H]1CNC[C@@H](COc2ccc(-c3ccncc3)cc2)O1)C(c1ccccc1)c1ccccc1` [Example 52, N-α-(methoxycarbonyl)-β-phenyl-N-(2-{2-[(2R,6S)-6-{[4-(pyridin-4-yl)phenoxy]methyl}morpholin-2-yl]ethyl}phenyl)-L-phenylalaninamide]: 4 nM; `COC(=O)N[C@H](C(=O)Nc1ccccc1CC[C@@H]1CNC[C@@H](COc2ccc(-n3ccnc3)cc2)O1)C(c1ccccc1)c1ccccc1` [Example 14, methyl N-[(1S)-1-benzhydryl-2-[[2-[2-[(2R,6S)-6-[(4-imidazol-1-ylphenoxy)methyl]morpholin-2-yl]ethyl]phenyl]amino]-2-oxo-ethyl]carbamate]: 32 nM. Consider `COC(=O)N[C@H](C(=O)Nc1ccccc1CC[C@@H]1CNC[C@@H](COc2ccc(F)cc2)O1)C(c1ccccc1)c1ccccc1` [Example 46, N-[2-(2-{(2R,6S)-6-[(4-fluorophenoxy)methyl]morpholin-2-yl}ethyl)phenyl]-Nα-(methoxycarbonyl)-β-phenyl-L-phenylalaninamide], for which the IC50 was found to be 23 nM. The figure for `COC(=O)N[C@@H](C(=O)Nc1ccccc1CC[C@@H]1CNC[C@@H](CSc2ccc(Cl)cc2)O1)[C@H](c1ccccc1)c1ccncc1` [Example 70, (βR)-N-(2-{2-[(2R,6S)-6-{[(4-chlorophenyl)sulfanyl]methyl}morpholin-2-yl]ethyl}phenyl)-Nα-(methoxycarbonyl)-β-pyridin-4-yl-D-phenylalaninamide] is 0.74 nM; for `COC(=O)N[C@H](C(=O)Nc1c(CC[C@@H]2CNC[C@@H](CSc3ccc(Cl)cc3)O2)cc[nH]c1=O)C(c1ccccc1)c1ccccc1` [Example 87, N-(4-{2-[(2R,6S)-6-{[(4-chlorophenyl)sulfanyl]methyl}morpholin-2-yl]ethyl}-2-oxo-1,2-dihydropyridin-3-yl)-Nα-(methoxycarbonyl)-β-phenyl-L-phenylalaninamide] it is 0.05 nM; for `COC(=O)N[C@H](C(=O)Nc1cncc(F)c1CC[C@@H]1CNC[C@@H](COc2ccc(C#N)cc2)O1)C(c1ccccc1)c1ccccc1` [Example 82, Methyl[(1S)-2-{[4-(2-{(2R,6S)-6-[(4-cyanophenoxy)methyl]morpholin-2-yl}ethyl)-5-fluoropyridin-3-yl]amino}-1-(diphenylmethyl)-2-oxoethyl]carbamate] it is 9.8 nM.

In the case of `NC(=O)OC[C@@H]1CNC[C@@H](CCc2c(F)cncc2NC(=O)[C@@H](N)C(c2ccc(F)cc2)c2ccc(F)cc2)O1` [Example 124, N-[4-(2-{(2R,6S)-6-[(carbamoyloxy)methyl]morpholin-2-yl}ethyl)-5-fluoropyridin-3-yl]-4-fluoro-β-(4-fluorophenyl)-L-phenylalaninamide], the IC50 is 120 nM. Against the preceding molecule, the IC50 is about 12-fold higher.
